Measured values taken from ChEMBL document CHEMBL3045033, “Synthesis of new potential anticancer agents based on 4-thiazolidinone and oleanane scaffolds” (Med Chem Res, 2012).
Where “and” joins values, the source holds several entries; their conditions need not be identical. Identical values can stand only once.

Columns and labels:
Assay type in all cases: functional
SNB-19 [1] = experiment: Cytotoxicity against Homo sapiens (human) SNB19 cells at 10^-4 to 10^-8 M after 48 hr by SRB assay; conditions: SNB-19, 48 h, read-out: pTGI (converted)
UACC-257 [2] = experiment: Cytotoxicity against Homo sapiens (human) UACC257 cells at 10^-4 to 10^-8 M after 48 hr by SRB assay; conditions: UACC-257, 48 h, read-out: pTGI (converted)
HOP-62 [3] = experiment: Cytotoxicity against Homo sapiens (human) HOP62 cells after 48 hr by SRB assay
HCT-116 = experiment: Cytotoxicity against Homo sapiens (human) HCT116 cells at 10^-4 to 10^-8 M after 48 hr by SRB assay; conditions: HCT-116, 48 h, read-out: pTGI (converted)
HCC 2998 = experiment: Cytotoxicity against Homo sapiens (human) HCC2998 cells at 10^-4 to 10^-8 M after 48 hr by SRB assay; conditions: HCC 2998, 48 h, read-out: pTGI (converted)
SF-539 [4] = experiment: Cytotoxicity against Homo sapiens (human) SF539 cells at 10^-4 to 10^-8 M after 48 hr by SRB assay; conditions: SF-539, 48 h, read-out: pTGI (converted)
NCI-H322M [5] = experiment: Cytotoxicity against Homo sapiens (human) NCI-H322M cells at 10^-4 to 10^-8 M after 48 hr by SRB assay; conditions: read-out: pTGI (converted)
SW-620 = experiment: Cytotoxicity against Homo sapiens (human) SW620 cells after 48 hr by SRB assay
EKVX = experiment: Cytotoxicity against Homo sapiens (human) EKVX cells at 10^-4 to 10^-8 M after 48 hr by SRB assay; conditions: read-out: pTGI (converted)
SR = experiment: Cytotoxicity against Homo sapiens (human) SR cells assessed as cellular growth at 10^-5 M after 48 hr by SRB assay relative to untreated control
SNB-19 [6] = experiment: Cytotoxicity against Homo sapiens (human) SNB19 cells after 48 hr by SRB assay
PC-3 = experiment: Cytotoxicity against Homo sapiens (human) PC3 cells at 10^-4 to 10^-8 M after 48 hr by SRB assay; conditions: PC-3, 48 h, read-out: pTGI (converted)
OVCAR-8 = experiment: Cytotoxicity against Homo sapiens (human) OVCAR8 cells at 10^-4 to 10^-8 M after 48 hr by SRB assay; conditions: OVCAR-8, 48 h, read-out: pTGI (converted)
SN12C = experiment: Cytotoxicity against Homo sapiens (human) SN12C cells at 10^-4 to 10^-8 M after 48 hr by SRB assay; conditions: read-out: pTGI (converted)
786-0 = experiment: Cytotoxicity against Homo sapiens (human) 786-0 cells at 10^-4 to 10^-8 M after 48 hr by SRB assay; conditions: 786-0, 48 h, read-out: pTGI (converted)
HT-29 [7] = experiment: Cytotoxicity against Homo sapiens (human) HT-29 cells at 10^-4 to 10^-8 M after 48 hr by SRB assay; conditions: HT-29, 48 h, read-out: pTGI (converted)
CCRF-CEM [8] = experiment: Cytotoxicity against Homo sapiens (human) CCRF-CEM cells after 48 hr by SRB assay
NCI-H322M [9] = experiment: Cytotoxicity against Homo sapiens (human) NCI-H322M cells after 48 hr by SRB assay
ACHN = experiment: Cytotoxicity against Homo sapiens (human) ACHN cells after 48 hr by SRB assay
OVCAR-4 = experiment: Cytotoxicity against Homo sapiens (human) OVCAR4 cells at 10^-4 to 10^-8 M after 48 hr by SRB assay; conditions: OVCAR-4, 48 h, read-out: pTGI (converted)
OVCAR-5 [10] = experiment: Cytotoxicity against Homo sapiens (human) OVCAR5 cells after 48 hr by SRB assay
NCI-H226 = experiment: Cytotoxicity against Homo sapiens (human) NCI-H226 cells after 48 hr by SRB assay
SK-OV-3 = experiment: Cytotoxicity against Homo sapiens (human) SKOV3 cells at 10^-4 to 10^-8 M after 48 hr by SRB assay; conditions: SK-OV-3, 48 h, read-out: pTGI (converted)
T47D = experiment: Cytotoxicity against Homo sapiens (human) T47D cells at 10^-4 to 10^-8 M after 48 hr by SRB assay; conditions: read-out: pTGI (converted)
OVCAR-5 [11] = experiment: Cytotoxicity against Homo sapiens (human) OVCAR5 cells at 10^-4 to 10^-8 M after 48 hr by SRB assay; conditions: OVCAR-5, 48 h, read-out: pTGI (converted)
LOX IMVI [12] = experiment: Cytotoxicity against Homo sapiens (human) LOXIMVI cells after 48 hr by SRB assay
[13] = Cytotoxicity against Homo sapiens (human) NCI-ADR-RES cells after 48 hr by SRB assay
HT-29 [14] = experiment: Cytotoxicity against Homo sapiens (human) HT-29 cells after 48 hr by SRB assay
KM12 = experiment: Cytotoxicity against Homo sapiens (human) KM12 cells at 10^-4 to 10^-8 M after 48 hr by SRB assay; conditions: KM12, 48 h, read-out: pTGI (converted)
UACC-257 [15] = experiment: Cytotoxicity against Homo sapiens (human) UACC257 cells after 48 hr by SRB assay
CCRF-CEM [16] = experiment: Cytotoxicity against Homo sapiens (human) CCRF-CEM cells at 10^-4 to 10^-8 M after 48 hr by SRB assay; conditions: read-out: pTGI (converted)
A498 [17] = experiment: Cytotoxicity against Homo sapiens (human) A498 cells at 10^-4 to 10^-8 M after 48 hr by SRB assay; conditions: A498, 48 h, read-out: pTGI (converted)
LOX IMVI [18] = experiment: Cytotoxicity against Homo sapiens (human) LOXIMVI cells at 10^-4 to 10^-8 M after 48 hr by SRB assay; conditions: read-out: pTGI (converted)
DU-145 = experiment: Cytotoxicity against Homo sapiens (human) DU145 cells at 10^-4 to 10^-8 M after 48 hr by SRB assay; conditions: DU-145, 48 h, read-out: pTGI (converted)
U-251 = experiment: Cytotoxicity against Homo sapiens (human) U251 cells at 10^-4 to 10^-8 M after 48 hr by SRB assay; conditions: U-251, 48 h, read-out: pTGI (converted)
OVCAR-3 = experiment: Cytotoxicity against Homo sapiens (human) OVCAR3 cells after 48 hr by SRB assay
A498 [19] = experiment: Cytotoxicity against Homo sapiens (human) A498 cells after 48 hr by SRB assay
SF-539 [20] = experiment: Cytotoxicity against Homo sapiens (human) SF539 cells after 48 hr by SRB assay
HOP-62 [21] = experiment: Cytotoxicity against Homo sapiens (human) HOP62 cells at 10^-4 to 10^-8 M after 48 hr by SRB assay; conditions: HOP-62, 48 h, read-out: pTGI (converted)
[22] = Homo sapiens, NCI/ADR-RES, 48 h

SMILES | TGI (SNB-19 [1]) | TGI (UACC-257 [2]) | TGI (HCT-116) | TGI (HCC 2998) | TGI (SF-539 [4]) | TGI (NCI-H322M [5]) | TGI (EKVX) | Activity (SR) | TGI (PC-3) | TGI (OVCAR-8) | TGI (SN12C) | TGI (786-0) | TGI (HT-29 [7]) | GI50 (CCRF-CEM [8]) | TGI (OVCAR-4) | TGI (SK-OV-3) | TGI (T47D) | TGI (OVCAR-5 [11]) | TGI (KM12) | TGI (CCRF-CEM [16]) | further results
COC(=O)[C@]12CCC(C)(C)C[C@H]1C1=CC[C@@H]3[C@@]4(C)CC/C(=N\O)C(C)(C)[C@@H]4CC[C@@]3(C)[C@]1(C)CC2 | 69.2 µM | > 100 µM | 56.2 µM | 42.7 µM | 41.7 µM | > 100 µM | 72.4 µM | -41.06% | 44.7 µM | > 100 µM | 42.7 µM | 34.7 µM | 79.4 µM | 28.2 µM | > 100 µM | > 100 µM | 72.4 µM | 55 µM | > 100 µM | 81.3 µM | GI50 (HOP-62 [3]; Homo sapiens, HOP-62, 48 h): 21.4 µM; GI50 (SW-620; Homo sapiens, SW-620, 48 h): 20 µM; GI50 (SNB-19 [6]; Homo sapiens, SNB-19, 48 h): 25.7 µM; GI50 (NCI-H322M [9]; Homo sapiens, NCI-H322M, 48 h): 72.4 µM; GI50 (ACHN; Homo sapiens, ACHN, 48 h): 20.9 µM; GI50 (OVCAR-5 [10]; Homo sapiens, OVCAR-5, 48 h): 24.5 µM; GI50 (NCI-H226; Homo sapiens, NCI-H226, 48 h): 27.5 µM; GI50 (LOX IMVI [12]; Homo sapiens, LOX IMVI, 48 h): 19.5 µM; GI50 [13, 22]: 37.2 µM; GI50 (HT-29 [14]; Homo sapiens, HT-29, 48 h): 22.9 µM; GI50 (UACC-257 [15]; Homo sapiens, UACC-257, 48 h): 33.1 µM; TGI (A498 [17]): 63.1 µM; TGI (LOX IMVI [18]): 39.8 µM; TGI (DU-145): 42.7 µM; TGI (U-251): 33.9 µM; GI50 (OVCAR-3; Homo sapiens, OVCAR-3, 48 h): 18.6 µM; GI50 (A498 [19]; Homo sapiens, A498, 48 h): 28.2 µM; GI50 (SF-539 [20]; Homo sapiens, SF-539, 48 h): 20.9 µM; TGI (HOP-62 [21]): 44.7 µM
COC(=O)[C@]12CCC(C)(C)C[C@H]1C1=CC[C@@H]3[C@@]4(C)CC/C(=N\OC(=O)/C=C5/SC(=O)NC5=O)C(C)(C)[C@@H]4CC[C@@]3(C)[C@]1(C)CC2 | 26.3 µM | 24.5 µM | 3.39 µM | 12.3 µM | 3.63 µM | 32.4 µM | 22.4 µM | -22.69% | 14.1 µM | 15.1 µM | 18.6 µM | 11.5 µM | 5.13 µM | 2.45 µM | 6.92 µM | 34.7 µM | 18.6 µM | 33.9 µM | 12.6 µM | 7.76 µM | GI50 (HOP-62 [3]): 64.6 µM and 20 µM; GI50 (SW-620): 7.59 µM and 2 µM; GI50 (SNB-19 [6]): 56.2 µM and 12.3 µM; LC50 (CCRF-CEM [8]): 37.2 µM; GI50 (NCI-H322M [9]): 58.9 µM and 18.2 µM; GI50 (ACHN): 1.74 µM and 6.61 µM; GI50 (OVCAR-5 [10]): 60.3 µM and 18.6 µM; GI50 (NCI-H226): ≥ 100 µM and 12.3 µM; GI50 (LOX IMVI [12]): 6.61 µM and 1.48 µM; GI50 [13]: 61.7 µM and 7.59 µM; GI50 (HT-29 [14]): 15.8 µM and 2.24 µM; GI50 (UACC-257 [15]): 51.3 µM and 11.5 µM; TGI (A498 [17]): 5.75 µM; TGI (LOX IMVI [18]): 3.09 µM; TGI (DU-145): 17 µM; TGI (U-251): 3.39 µM; GI50 (OVCAR-3): 6.31 µM and 1.91 µM; GI50 (A498 [19]): 17.8 µM and 2.57 µM; GI50 (SF-539 [20]): 7.59 µM and 1.78 µM; TGI (HOP-62 [21]): 36.3 µM
CC1(C)CC[C@@]23CC[C@]4(C)[C@@](OC2=O)([C@@H]3C1)[C@@H](Br)C[C@@H]1[C@@]2(C)CC/C(=N\O)C(C)(C)[C@@H]2CC[C@]14C | > 100 µM | > 100 µM | > 100 µM | > 100 µM | > 100 µM | > 100 µM | > 100 µM | -62.66% | > 100 µM | 53.7 µM | > 100 µM | > 100 µM | > 100 µM | 17.4 µM | > 100 µM | > 100 µM | 74.1 µM | > 100 µM | > 100 µM | > 100 µM | GI50 (HOP-62 [3]; Homo sapiens, HOP-62, 48 h): 40.7 µM; GI50 (SW-620; Homo sapiens, SW-620, 48 h): 6.76 µM; GI50 (SNB-19 [6]; Homo sapiens, SNB-19, 48 h): 53.7 µM; GI50 (NCI-H322M [9]; Homo sapiens, NCI-H322M, 48 h): 20 µM; GI50 (ACHN; Homo sapiens, ACHN, 48 h): 53.7 µM; GI50 (OVCAR-5 [10]; Homo sapiens, OVCAR-5, 48 h): > 100 µM; GI50 (NCI-H226; Homo sapiens, NCI-H226, 48 h): 28.2 µM; GI50 (LOX IMVI [12]; Homo sapiens, LOX IMVI, 48 h): 10 µM; GI50 [13, 22]: 26.9 µM; GI50 (HT-29 [14]; Homo sapiens, HT-29, 48 h): 17.8 µM; GI50 (UACC-257 [15]; Homo sapiens, UACC-257, 48 h): 14.8 µM; TGI (A498 [17]): > 100 µM; TGI (LOX IMVI [18]): > 100 µM; TGI (DU-145): > 100 µM; TGI (U-251): > 100 µM; GI50 (OVCAR-3; Homo sapiens, OVCAR-3, 48 h): 11.5 µM; GI50 (A498 [19]; Homo sapiens, A498, 48 h): 49 µM; GI50 (SF-539 [20]; Homo sapiens, SF-539, 48 h): 20 µM; TGI (HOP-62 [21]): > 100 µM
